# Activity calls are given as the source filed them. No cut-off for these calls is given here.
# Key:
# [1] = system: Leishmania donovani; experiment: Induction of membrane depolarization in Leishmania donovani promastigotes assessed as increase in fluorescence at MIC by DiBAC4 dye based flow cytometry analysis; type: functional, organism-based; details: TDE = time-dependent effect
# [2] = system: J774; experiment: Immunostimulatory activity in mouse J774 cells infected with Leishmania donovani promastigotes assessed as increase in IL-2 cytokine production at 50 uM after 48 hrs by ELISA; type: functional, cell-based
# [3] = Cmax in BALB/c mouse at 50 mg/kg, ip by HPLC analysis; type: ADME, organism-based; parameters: dose 50 mg/kg, route intraperitoneal; details: in vivo
# [4] = AUC(0 to 24 hrs) in BALB/c mouse at 50 mg/kg, ip by HPLC analysis; type: ADME, organism-based; parameters: dose 50 mg/kg, time < 24 hr, route intraperitoneal; details: in vivo
# [5] = Toxicity in BALB/c mouse infected with Leishmania donovani promastigotes assessed as serum ALT level at 50 mg/kg , ip measured after 3 to 7 weeks (rvb = 31 IU/L); type: organism-based; details: in vivo
# [6] = Cytotoxicity against BALB/c mouse splenocytes assessed as cell viability at 200 uM after 72 hrs by MTT assay relative to control; type: cell-based, Splenocyte; details: read-out: Activity
# [7] = Stability in mouse plasma at 10 ug/ml measured after 2 hrs by UPLC analysis relative to control; type: ADME, cell-free; details: read-out: Stability
# [8] = system: Leishmania donovani; experiment: Inhibition of succinate-ubiquinone oxidoreductase in Leishmania donovani promastigotes mitochondria at 8.1 to 50 uM using succinate as substrate in presence fo DCPIP by photometry analysis
# [9] = system: Leishmania donovani; experiment: Antileishmanial activity against Leishmania donovani promastigotes infected in BALB/c mouse assessed as reduction in parasite burden in liver at 25 mg/kg, ip administered for 7 days starting at 15 days post-infection and measured after 1 week post last dose Giemsa staining-based assay relative to control; type: functional
# [10] = Toxicity in BALB/c mouse infected with Leishmania donovani promastigotes assessed as serum AST level at 50 mg/kg , ip measured after 3 to 7 weeks (reference value: 114 U/L); type: organism-based; details: in vivo
# [11] = system: J774; experiment: Immunostimulatory activity in mouse J774 cells infected with Leishmania donovani promastigotes assessed as increase in TNF-alpha cytokine production at 50 uM after 48 hrs by ELISA; type: functional, cell-based
# [12] = system: Leishmania donovani; experiment: Induction of ROS generation in Leishmania donovani promastigotes at 50 uM after 12 hrs by H2DCFDA probe based flow cytometry (reference value: 1.97%); type: functional
# [13] = system: Leishmania donovani; experiment: Induction of apoptosis in Leishmania donovani promastigotes assessed as early apoptotic cells at 50 uM after 24 hrs by Annexin-V/propidium iodide staining based flow cytometric method (reference value: 5.79%); type: functional
compound,measurement,setting,value
CCOC(=O)C(C(=O)c1ccc(OC)cc1)C(NC(C)=O)c1cccc2ccccc12 (stereo not drawn),Activity,[1],Tde
same,Activity,[2],inactive
same,Cmax,[3],2080 ng/mL
same,AUC(0-t) at 24 h,[4],1280 ng·h/mL
same,Activity,[5],17 to 177 IU/L
same,"viability at 72 h, 200 µM",[6],> 84.3%
same,"remaining at 2 h, 10 ug/ml",[7],81%
same,inhibition,[8],inactive
same,inhibition in vivo at 25 mg/kg,[9],67.6%
same,Activity,[10],54 to 298 IU/L
same,Activity,[11],inactive
same,Activity,[12],50.35%
same,Activity,[13],8.56%

# Source: ChEMBL document CHEMBL4406843, “β-Amino acid derivatives as mitochondrial complex III inhibitors of L. donovani: A promising chemotype targeting visceral leishmaniasis” (Eur J Med Chem, 2019)
